Experimental data from patent US4083994A, “Choleretics” (Hisamitsu Pharmaceutical Co., Inc., priority 1975, dated 1978).

Key:
[1] = Acute toxicity test in mice; details: mouse, in vivo, oral, parentheses: 95% confidence limit
Method: The test drugs were suspended in 5% gum arabic aqueous solution to make 50 mg/ml, and given orally male mice of ddY strain weighing 18-22 g and male rats of Wistar strain weighing 95-120 g. The LD50 values were calculated from the mortality of the animals that ensued during the 72 hours following the drug administration

bile secretion [2] = assay: Bile secretion test in dogs; format: in vivo, male mongrel dogs; details: into duodenum; for Bile volume secreted after administration: dog, volume in 1 h before administration = 100%; for Volume of bile secreted relative to one hour before administration: one dog (7.6 kg)
Method: Male mongrel dogs weighing approximately 8 kg were anesthetized with intravenous injection of […] of pentobarbital and further with subcutaneous injection of urethane at a dose of 1.0 g/kg and laparotomized. One canula was inserted into the common bile duct and directed to the liver for collection of the bile, and the other canula was inserted into the duodenum for the drug administration. The cholecystic duct was ligated and the gallbladder bile was aspirated with an injection syringe. The operation was finished by suture of the peritoneum. The bile was collected for one hour from 30 minutes after the operation. The animals were given the test drugs, each 50 mg of which was suspended in 1 ml of 5% gum arabic aqueous solution, through the canula for the drug administration. The bile was collected at hourly intervals for 6 hours after the drug administration. Defining the volume of the bile secreted for one hour before the drug administration as 100%, the volume secreted at hourly intervals after the drug administration was expressed in %, as shown in Table 2.
The mean volume secreted for one hour before the drug administration was 1798 μl.
This suspension was used as a choleretic of the present invention. A male mongrel dog weighing 8.8 kg was fasted overnight and anesthetized by subcutaneous injection of 1.0 mg/kg of urethane and laparotomized. One canula was inserted into the common bile duct and directed to the liver for collection of the bile, and the other canula was also inserted into the duodenum for the drug administration. Subsequently, the cholecystic duct was ligated and the gallbladder bile was aspirated with an injection syringe. The operation was finished after suturing the peritoneum. The bile was collected for one hour from 30 minutes after the operation, and subsequently, 44 ml of the test drug prepared above (250 mg/kg) was given through the canula for the drug administration. The volume of the bile secreted for the first, second and third one hour after the drug administration were 2.2, 2.1 and 1.9 times larger, respectively, than that secreted for one hour before the drug administration.
About 2.5 g of 9-propionyloxy-p-menth-1-en-8-ol was weighed accurately and suspended in 50 ml of 5% gum arabic aqueous solution. This suspension was used as a choleretic of the present invention. A male mongrel dog weighing 7.6 kg was fasted overnight and anesthetized by subcutaneous injection of 1.0 mg/kg of urethane and then laparotomized. One canula was inserted into the common bile duct and directed to the liver for collection of the bile, and the other canula into the duodenum for the drug administration. Subsequently, the cholecystic duct was ligated and the gallbladder bile was aspirated with an injection syringe. The operation was finished by suturing the peritoneum. The bile was collected for one hour from 30 minutes after the operation, and 50 ml (330 mg/kg) of the test drug prepared above was administered through the canula for the drug administration. The volume of the bile secreted for the first, second and third one hour after the drug administration was 3.2, 5.0 and 4.7 times larger, respectively, than that secreted for one hour before the drug administration.

bile secretion [3] = assay: Bile secretion test in rats; format: in vivo, male Wistar rats; details: rat, oral, volume in 1 h before administration = 100%
Method: Male Wistar rats weighing 200-210 g were fasted overnight and laparotomized under urethane anesthesia(Subcutaneous injection at a dose of 1.5 g/kg). A polyethylene tube was inserted into the common bile duct. The bile was collected for one hour from 30 minutes after the operation. Subsequently, the animals were given orally the test drugs, each 50 mg of which was suspended in 1 ml of 5% gum arabic aqueous solution. The bile was collected for 5 hours after the drug administration. The volume of the bile secreted at hourly intervals after the drug administration was expressed in %, defining the volume secreted for one hour before the drug administration as 100%, as shown in Table 1.
About 500 mg of p-menth-1-ene-8,9-diol were weighed accurately, and suspended in 10 ml of 5% gum arabic aqueous solution. […] Male rats of Wistar strain weighing 200 g were fasted overnight, anesthetized by subcutanous injection of 0.3 g of urethane and laparotomized. A polyethylene tube was inserted into the common bile duct. The bile was collected for one hour from 30 minutes after the operation. […]
About 500 mg of 9-acetoxy-p-menth-1-en-8-ol was weighed accurately and suspended in 10ml of 5% gum arabic aqueous solution. […] Male rats of Wistar strain weighing about 210 g were fasted overnight and anesthetized by subcutaneous injection of 0.32 g of urethane and then laparotomized. A polyethylene tube was inserted into the common bile duct, and the bile secreted through the duct was collected for one hour from 30 minutes after the operation. Subsequently, the choleretic of the present invention was administered orally in a volume of 1.05 ml (250 mg/kg).

With `CCC(=O)OCC(C)(O)C1CC=C(C)CC1` (stereo not drawn) [9-Propionyloxy-p-menth-1-en-8-ol, 9-propionyloxy-p-menth-1-en-8-ol] the LD50 at 72 h [1] was over 4000 mg/kg, the “Bile volume secreted after administration” value (from here on “Bile volume secreted”) (bile secretion [2]; 330 mg/kg, 0-1 hr) was 322% and the “Bile volume secreted” value (bile secretion [2]; 330 mg/kg, 1-2 hr) was 497%. For the same compound, the “Bile volume secreted” value (bile secretion [2]; 330 mg/kg, 2-3 hr) was 472%, the “Bile volume secreted” value (bile secretion [2]; 330 mg/kg, 3-4 hr) was 402% and the “Bile volume secreted” value (bile secretion [2]; 330 mg/kg, 4-5 hr) was 367%. For the same compound, the “Bile volume secreted” value (bile secretion [2]; 330 mg/kg, 5-6 hr) was 324%, the “Volume of bile secreted relative to one hour before administration” value (bile secretion [2]; 330 mg/kg, first hour) was 3.2 times and the “Volume of bile secreted relative to one hour before administration” value (bile secretion [2]; 330 mg/kg, second hour) was 5.0 times. The “Volume of bile secreted relative to one hour before administration” value (bile secretion [2]; 330 mg/kg, third hour) was 4.7 times, the “Bile volume secreted” value (bile secretion [3]; 110 mg/kg, 0-1 hr) was 135% and the “Bile volume secreted” value (bile secretion [3]; 110 mg/kg, 1-2 hr) was 117%. For the same compound, the “Bile volume secreted” value (bile secretion [3]; 110 mg/kg, 2-3 hr) was 100%, the “Bile volume secreted” value (bile secretion [3]; 110 mg/kg, 3-4 hr) was 87% and the “Bile volume secreted” value (bile secretion [3]; 110 mg/kg, 4-5 hr) was 74%. The “Bile volume secreted” value (bile secretion [3]; 330 mg/kg, 0-1 hr) was 147%, the “Bile volume secreted” value (bile secretion [3]; 330 mg/kg, 1-2 hr) was 139% and the “Bile volume secreted” value (bile secretion [3]; 330 mg/kg, 2-3 hr) was 118%. For the same compound, the “Bile volume secreted” value (bile secretion [3]; 330 mg/kg, 3-4 hr) was 104%, the “Bile volume secreted” value (bile secretion [3]; 330 mg/kg, 4-5 hr) was 86% and the “Bile volume secreted” value (bile secretion [3]; 990 mg/kg, 0-1 hr) was 176%. The “Bile volume secreted” value (bile secretion [3]; 990 mg/kg, 1-2 hr) was 174%, the “Bile volume secreted” value (bile secretion [3]; 990 mg/kg, 2-3 hr) was 153% and the “Bile volume secreted” value (bile secretion [3]; 990 mg/kg, 3-4 hr) was 130%. For the same compound, the “Bile volume secreted” value (bile secretion [3]; 990 mg/kg, 4-5 hr) was 120%.
In the case of `CC(C)[C@@H]1CC[C@@H](C)C[C@H]1O` [1-Menthol, 1-menthol, reference compound], the “Bile volume secreted” value (bile secretion [3]; 80 mg/kg, 0-1 hr) is reported as 134%, the “Bile volume secreted” value (bile secretion [3]; 80 mg/kg, 1-2 hr) is reported as 114% and the “Bile volume secreted” value (bile secretion [3]; 80 mg/kg, 2-3 hr) is reported as 100%. The “Bile volume secreted” value (bile secretion [3]; 80 mg/kg, 3-4 hr) was 95%, the “Bile volume secreted” value (bile secretion [3]; 80 mg/kg, 4-5 hr) was 89% and the “Bile volume secreted” value (bile secretion [3]; 230 mg/kg, 0-1 hr) was 139%. For the same compound, the “Bile volume secreted” value (bile secretion [3]; 230 mg/kg, 1-2 hr) was 137%, the “Bile volume secreted” value (bile secretion [3]; 230 mg/kg, 2-3 hr) was 133% and the “Bile volume secreted” value (bile secretion [3]; 230 mg/kg, 3-4 hr) was 117%. The “Bile volume secreted” value (bile secretion [3]; 230 mg/kg, 4-5 hr) was 111%, the “Bile volume secreted” value (bile secretion [3]; 750 mg/kg, 0-1 hr) was 152% and the “Bile volume secreted” value (bile secretion [3]; 750 mg/kg, 1-2 hr) was 143%. For the same compound, the “Bile volume secreted” value (bile secretion [3]; 750 mg/kg, 2-3 hr) was 138%, the “Bile volume secreted” value (bile secretion [3]; 750 mg/kg, 3-4 hr) was 122% and the “Bile volume secreted” value (bile secretion [3]; 750 mg/kg, 4-5 hr) was 111%.
In the case of `C=C(C)C1CC=C(C)CC1` (stereo not drawn) [p-Mentha-1,8-diene, p-mentha-1,8-diene], the “Bile volume secreted” value (bile secretion [2]; 250 mg/kg, 0-1 hr) is reported as 220%, the “Bile volume secreted” value (bile secretion [2]; 250 mg/kg, 1-2 hr) is reported as 213% and the “Bile volume secreted” value (bile secretion [2]; 250 mg/kg, 2-3 hr) is reported as 185%. For the same compound, the “Bile volume secreted” value (bile secretion [2]; 250 mg/kg, 3-4 hr) was 110%, the “Bile volume secreted” value (bile secretion [2]; 250 mg/kg, 4-5 hr) was 85% and the “Bile volume secreted” value (bile secretion [3]; 80 mg/kg, 0-1 hr) was 101%. The “Bile volume secreted” value (bile secretion [3]; 80 mg/kg, 1-2 hr) was 100%, the “Bile volume secreted” value (bile secretion [3]; 80 mg/kg, 2-3 hr) was 100% and the “Bile volume secreted” value (bile secretion [3]; 80 mg/kg, 3-4 hr) was 94%. The “Bile volume secreted” value (bile secretion [3]; 80 mg/kg, 4-5 hr) was 91%, the “Bile volume secreted” value (bile secretion [3]; 250 mg/kg, 0-1 hr) was 104% and the “Bile volume secreted” value (bile secretion [3]; 250 mg/kg, 1-2 hr) was 108%. The “Bile volume secreted” value (bile secretion [3]; 250 mg/kg, 2-3 hr) was 109%, the “Bile volume secreted” value (bile secretion [3]; 250 mg/kg, 3-4 hr) was 108% and the “Bile volume secreted” value (bile secretion [3]; 250 mg/kg, 4-5 hr) was 104%. For the same compound, the “Bile volume secreted” value (bile secretion [3]; 750 mg/kg, 0-1 hr) was 111%, the “Bile volume secreted” value (bile secretion [3]; 750 mg/kg, 1-2 hr) was 125% and the “Bile volume secreted” value (bile secretion [3]; 750 mg/kg, 2-3 hr) was 128%. The “Bile volume secreted” value (bile secretion [3]; 750 mg/kg, 3-4 hr) was 131% and the “Bile volume secreted” value (bile secretion [3]; 750 mg/kg, 4-5 hr) was 128%.
With `CCC(O)c1ccccc1` (racemic) [Felicur, phenylpropanol, reference compound] the “Bile volume secreted” value (bile secretion [2]; 50 mg/kg, 0-1 hr) was 231%, the “Bile volume secreted” value (bile secretion [2]; 50 mg/kg, 1-2 hr) was 230% and the “Bile volume secreted” value (bile secretion [2]; 50 mg/kg, 2-3 hr) was 188%. The “Bile volume secreted” value (bile secretion [2]; 50 mg/kg, 3-4 hr) was 147%, the “Bile volume secreted” value (bile secretion [3]; 250 mg/kg, 0-1 hr) was 204% and the “Bile volume secreted” value (bile secretion [3]; 250 mg/kg, 1-2 hr) was 172%. The “Bile volume secreted” value (bile secretion [3]; 250 mg/kg, 2-3 hr) was 138%, the “Bile volume secreted” value (bile secretion [3]; 250 mg/kg, 3-4 hr) was 108% and the “Bile volume secreted” value (bile secretion [3]; 250 mg/kg, 4-5 hr) was 88%.
